Legend:
[1] = target: Serine/threonine-protein kinase PAK 4 (Homo sapiens) (UniProt O96013); assay: PAK4 (h) Millipore kinase activity assay; conditions: Compound concentration 1.0 uM
[2] = target: Serine/threonine-protein kinase PAK 6 (Homo sapiens) (UniProt Q9NQU5); assay: PAK6 (h) Millipore kinase activity assay; conditions: Compound concentration 1.0 uM
[3] = target: Serine/threonine-protein kinase D2 (Homo sapiens) (UniProt Q9BZL6); assay: PKD2 (h) Millipore kinase activity assay; conditions: Compound concentration 1.0 uM
[4] = target: T1, cGMP-dependent protein kinase 1 (Homo sapiens) (UniProt Q13976); assay: PKG1beta (h) Millipore kinase activity assay; conditions: Compound concentration 1.0 uM
T1 sequence (whole entry): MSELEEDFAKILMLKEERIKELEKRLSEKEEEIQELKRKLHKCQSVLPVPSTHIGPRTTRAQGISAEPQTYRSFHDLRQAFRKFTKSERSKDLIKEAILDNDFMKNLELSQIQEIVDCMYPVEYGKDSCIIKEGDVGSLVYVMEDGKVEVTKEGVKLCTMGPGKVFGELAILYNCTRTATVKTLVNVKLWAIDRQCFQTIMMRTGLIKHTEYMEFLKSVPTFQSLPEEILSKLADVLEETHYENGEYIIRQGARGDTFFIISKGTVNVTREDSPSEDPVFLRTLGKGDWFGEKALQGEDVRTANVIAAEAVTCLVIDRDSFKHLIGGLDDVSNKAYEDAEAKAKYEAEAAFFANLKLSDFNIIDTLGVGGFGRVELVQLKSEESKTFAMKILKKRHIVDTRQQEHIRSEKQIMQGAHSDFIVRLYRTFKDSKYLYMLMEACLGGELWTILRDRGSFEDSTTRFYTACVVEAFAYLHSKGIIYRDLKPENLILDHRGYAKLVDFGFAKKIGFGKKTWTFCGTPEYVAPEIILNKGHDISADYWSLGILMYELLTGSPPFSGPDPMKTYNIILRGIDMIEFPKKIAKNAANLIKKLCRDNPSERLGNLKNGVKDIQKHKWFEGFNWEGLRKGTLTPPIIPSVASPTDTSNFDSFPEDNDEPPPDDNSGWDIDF

[5] = target: Tyrosine-protein kinase receptor UFO (Homo sapiens) (UniProt P30530); assay: Axl (h) Millipore kinase activity assay; conditions: Compound concentration 1.0 uM
[6] = target: Ephrin type-A receptor 4 (Homo sapiens) (UniProt P54764); assay: EphA4 (h) Millipore kinase activity assay; conditions: Compound concentration 1.0 uM
[7] = target: Serine/threonine-protein kinase TAO3 (Homo sapiens) (UniProt Q9H2K8); assay: TAO3 (h) Millipore kinase activity assay; conditions: Compound concentration 1.0 uM
[8] = target: Calcium/calmodulin-dependent protein kinase type II subunit beta (Homo sapiens) (UniProt Q13554); assay: CaMKIIbeta (h) Millipore kinase activity assay; conditions: Compound concentration 1.0 uM
[9] = target: Serine/threonine-protein kinase Nek3 (Homo sapiens) (UniProt P51956); assay: NEK3 (h) Millipore kinase activity assay; conditions: Compound concentration 1.0 uM
[10] = target: Ribosomal protein S6 kinase alpha-5 (Homo sapiens) (UniProt O75582); assay: MSK1 (h) Millipore kinase activity assay; conditions: Compound concentration 1.0 uM
[11] = target: Muscle, skeletal receptor tyrosine-protein kinase (Homo sapiens) (UniProt O15146); assay: MuSK (h) Millipore kinase activity assay; conditions: Compound concentration 1.0 uM
[12] = target: Mitogen-activated protein kinase 13 (Homo sapiens) (UniProt O15264); assay: SAPK4 (h) Millipore kinase activity assay; conditions: Compound concentration 1.0 uM
[13] = target: Dual specificity mitogen-activated protein kinase kinase 7 (Homo sapiens) (UniProt O14733); assay: MKK7beta (h) Millipore kinase activity assay; conditions: Compound concentration 1.0 uM
[14] = target: Serine/threonine-protein kinase SIK1 (Homo sapiens) (UniProt P57059); assay: SIK (h) Millipore kinase activity assay; conditions: Compound concentration 1.0 uM
[15] = target: Serine/threonine-protein kinase haspin (Homo sapiens) (UniProt Q8TF76); conditions: Compound concentration 1000.0 nM
[16] = target: Activin receptor type-1-like (Homo sapiens) (UniProt P37023); conditions: Compound concentration 1000.0 nM
[17] = target: TGF-beta receptor type-1 (Homo sapiens) (UniProt P36897); conditions: Compound concentration 1000.0 nM
[18] = target: Serine/threonine-protein kinase ULK1 (Homo sapiens) (UniProt O75385); conditions: Compound concentration 1000.0 nM
[19] = target: Cyclin-dependent kinase-like 1 (Homo sapiens) (UniProt Q00532); conditions: Compound concentration 1000.0 nM
[20] = target: Testis-specific serine/threonine-protein kinase 1 (Homo sapiens) (UniProt Q9BXA7); conditions: Compound concentration 1000.0 nM
[21] = target: Mitogen-activated protein kinase kinase kinase 10 (Homo sapiens) (UniProt Q02779); conditions: Compound concentration 1000.0 nM
[22] = target: Muscle, skeletal receptor tyrosine-protein kinase (Homo sapiens) (UniProt O15146); conditions: Compound concentration 1000.0 nM
[23] = tested on: Phosphatidylinositol 4,5-bisphosphate 3-kinase catalytic subunit alpha isoform (Homo sapiens), P42336 [C420R]; conditions: Compound concentration 1000.0 nM
[24] = target: Myosin light chain kinase, smooth muscle (Homo sapiens) (UniProt Q15746); conditions: Compound concentration 1000.0 nM
[25] = target: Mitogen-activated protein kinase kinase kinase kinase 2 (Homo sapiens) (UniProt Q12851); conditions: Compound concentration 1000.0 nM
[26] = tested on: Tyrosine-protein kinase ABL1 (Homo sapiens), P00519 [H396P]; conditions: Compound concentration 1000.0 nM
[27] = target: Cytoplasmic tyrosine-protein kinase BMX (Homo sapiens) (UniProt P51813); conditions: Compound concentration 1000.0 nM
[28] = target: Atypical kinase COQ8B, mitochondrial (Homo sapiens) (UniProt Q96D53); conditions: Compound concentration 1000.0 nM
[29] = target: Phosphatidylinositol 4-kinase beta (Homo sapiens) (UniProt Q9UBF8); conditions: Compound concentration 1000.0 nM
[30] = target: Beta-adrenergic receptor kinase 1 (Homo sapiens) (UniProt P25098); conditions: Compound concentration 1000.0 nM
[31] = target: Mitotic checkpoint serine/threonine-protein kinase BUB1 (Homo sapiens) (UniProt O43683); conditions: Compound concentration 1000.0 nM
[32] = target: Tyrosine-protein kinase Fer (Homo sapiens) (UniProt P16591); conditions: Compound concentration 1000.0 nM
[33] = target: Dual specificity mitogen-activated protein kinase kinase 1 (Homo sapiens) (UniProt Q02750); conditions: Compound concentration 1000.0 nM
[34] = target: Mitogen-activated protein kinase 6 (Homo sapiens) (UniProt Q16659); conditions: Compound concentration 1000.0 nM
[35] = target: Serine/threonine-protein kinase PAK 4 (Homo sapiens) (UniProt O96013); conditions: Compound concentration 1000.0 nM
[36] = target: Serine/threonine-protein kinase Chk2 (Homo sapiens) (UniProt O96017); conditions: Compound concentration 1000.0 nM
[37] = target: Inhibitor of nuclear factor kappa-B kinase subunit epsilon (Homo sapiens) (UniProt Q14164); conditions: Compound concentration 1000.0 nM

Sequence of Muscle, skeletal receptor tyrosine-protein kinase (Homo sapiens) (O15146 whole entry, canonical isoform): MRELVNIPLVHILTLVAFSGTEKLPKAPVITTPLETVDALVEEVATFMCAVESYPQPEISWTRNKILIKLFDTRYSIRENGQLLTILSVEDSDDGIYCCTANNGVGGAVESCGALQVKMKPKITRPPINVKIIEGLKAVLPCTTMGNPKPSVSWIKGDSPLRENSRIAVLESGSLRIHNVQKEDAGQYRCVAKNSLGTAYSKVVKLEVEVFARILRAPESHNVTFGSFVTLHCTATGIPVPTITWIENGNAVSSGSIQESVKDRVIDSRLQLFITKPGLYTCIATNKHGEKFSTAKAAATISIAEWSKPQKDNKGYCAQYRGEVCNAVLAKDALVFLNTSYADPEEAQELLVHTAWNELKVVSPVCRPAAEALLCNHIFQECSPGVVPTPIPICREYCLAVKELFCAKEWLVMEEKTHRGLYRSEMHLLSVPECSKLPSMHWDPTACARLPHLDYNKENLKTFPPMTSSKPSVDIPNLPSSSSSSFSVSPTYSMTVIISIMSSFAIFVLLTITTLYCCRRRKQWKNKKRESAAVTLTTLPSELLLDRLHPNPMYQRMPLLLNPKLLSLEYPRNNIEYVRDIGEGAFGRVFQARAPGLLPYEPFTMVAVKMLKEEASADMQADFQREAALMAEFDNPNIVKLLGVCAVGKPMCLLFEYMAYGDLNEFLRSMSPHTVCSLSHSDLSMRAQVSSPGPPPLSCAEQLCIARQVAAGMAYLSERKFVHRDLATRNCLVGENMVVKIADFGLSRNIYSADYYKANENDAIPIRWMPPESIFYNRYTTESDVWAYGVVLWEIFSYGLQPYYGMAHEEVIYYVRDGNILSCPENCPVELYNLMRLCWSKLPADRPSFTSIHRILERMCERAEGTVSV
Sequence of Serine/threonine-protein kinase PAK 4 (Homo sapiens) (O96013 whole entry, looked up): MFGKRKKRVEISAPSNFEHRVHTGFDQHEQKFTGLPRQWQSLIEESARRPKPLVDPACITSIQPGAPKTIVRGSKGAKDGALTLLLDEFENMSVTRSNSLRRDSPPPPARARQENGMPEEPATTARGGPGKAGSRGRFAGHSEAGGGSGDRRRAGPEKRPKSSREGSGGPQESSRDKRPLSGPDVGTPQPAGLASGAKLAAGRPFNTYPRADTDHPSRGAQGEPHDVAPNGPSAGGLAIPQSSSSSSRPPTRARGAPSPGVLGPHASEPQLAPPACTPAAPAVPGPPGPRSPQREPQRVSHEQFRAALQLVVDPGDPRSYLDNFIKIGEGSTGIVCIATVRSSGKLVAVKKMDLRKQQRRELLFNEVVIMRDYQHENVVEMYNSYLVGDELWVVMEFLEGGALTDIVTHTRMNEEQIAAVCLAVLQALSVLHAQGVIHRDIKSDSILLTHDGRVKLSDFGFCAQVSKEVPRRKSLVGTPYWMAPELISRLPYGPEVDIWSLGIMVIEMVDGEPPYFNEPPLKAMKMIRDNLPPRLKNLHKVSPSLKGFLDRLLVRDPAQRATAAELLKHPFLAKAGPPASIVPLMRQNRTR
Sequence of Calcium/calmodulin-dependent protein kinase type II subunit beta (Homo sapiens) (Q13554 whole entry): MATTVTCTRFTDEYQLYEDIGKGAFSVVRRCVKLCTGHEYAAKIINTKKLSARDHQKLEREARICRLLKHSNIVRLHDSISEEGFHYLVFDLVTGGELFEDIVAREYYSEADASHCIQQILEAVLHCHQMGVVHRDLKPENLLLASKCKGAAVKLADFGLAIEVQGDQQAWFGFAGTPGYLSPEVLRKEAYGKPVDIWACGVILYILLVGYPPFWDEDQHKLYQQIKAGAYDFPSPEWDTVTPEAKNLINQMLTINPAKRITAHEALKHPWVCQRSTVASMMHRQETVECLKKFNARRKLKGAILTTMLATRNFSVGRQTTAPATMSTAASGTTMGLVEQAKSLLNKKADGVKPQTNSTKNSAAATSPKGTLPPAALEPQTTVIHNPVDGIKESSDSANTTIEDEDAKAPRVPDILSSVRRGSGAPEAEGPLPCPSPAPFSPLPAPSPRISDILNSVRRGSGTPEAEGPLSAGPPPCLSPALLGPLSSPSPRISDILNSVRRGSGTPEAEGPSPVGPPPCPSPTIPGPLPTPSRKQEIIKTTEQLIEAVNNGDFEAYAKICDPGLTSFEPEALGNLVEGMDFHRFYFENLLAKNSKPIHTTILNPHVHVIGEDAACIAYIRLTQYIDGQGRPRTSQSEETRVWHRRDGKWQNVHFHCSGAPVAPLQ
Sequence of Serine/threonine-protein kinase haspin (Homo sapiens) (Q8TF76 whole entry): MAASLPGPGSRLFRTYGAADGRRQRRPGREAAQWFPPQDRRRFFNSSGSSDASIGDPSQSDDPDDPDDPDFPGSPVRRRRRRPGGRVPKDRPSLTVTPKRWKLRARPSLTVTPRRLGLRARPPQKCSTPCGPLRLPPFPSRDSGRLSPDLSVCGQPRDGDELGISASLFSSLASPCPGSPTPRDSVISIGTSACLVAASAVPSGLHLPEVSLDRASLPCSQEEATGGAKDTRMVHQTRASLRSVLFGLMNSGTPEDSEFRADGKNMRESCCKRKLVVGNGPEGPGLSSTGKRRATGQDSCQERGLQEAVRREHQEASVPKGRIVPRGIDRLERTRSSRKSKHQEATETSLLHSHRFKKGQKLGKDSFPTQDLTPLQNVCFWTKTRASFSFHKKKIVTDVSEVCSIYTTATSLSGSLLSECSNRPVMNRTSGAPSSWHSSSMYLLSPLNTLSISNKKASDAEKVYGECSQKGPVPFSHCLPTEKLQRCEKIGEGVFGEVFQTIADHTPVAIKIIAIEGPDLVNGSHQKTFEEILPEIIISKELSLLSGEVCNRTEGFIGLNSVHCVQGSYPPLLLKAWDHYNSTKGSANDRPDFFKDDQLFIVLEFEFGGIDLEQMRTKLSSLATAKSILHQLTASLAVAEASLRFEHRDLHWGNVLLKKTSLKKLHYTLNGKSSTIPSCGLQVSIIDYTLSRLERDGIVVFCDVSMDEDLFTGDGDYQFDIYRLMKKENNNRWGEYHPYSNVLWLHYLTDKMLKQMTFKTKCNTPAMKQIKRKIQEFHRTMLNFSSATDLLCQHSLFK
Sequence of Mitogen-activated protein kinase kinase kinase 10 (Homo sapiens) (Q02779 whole entry, looked up): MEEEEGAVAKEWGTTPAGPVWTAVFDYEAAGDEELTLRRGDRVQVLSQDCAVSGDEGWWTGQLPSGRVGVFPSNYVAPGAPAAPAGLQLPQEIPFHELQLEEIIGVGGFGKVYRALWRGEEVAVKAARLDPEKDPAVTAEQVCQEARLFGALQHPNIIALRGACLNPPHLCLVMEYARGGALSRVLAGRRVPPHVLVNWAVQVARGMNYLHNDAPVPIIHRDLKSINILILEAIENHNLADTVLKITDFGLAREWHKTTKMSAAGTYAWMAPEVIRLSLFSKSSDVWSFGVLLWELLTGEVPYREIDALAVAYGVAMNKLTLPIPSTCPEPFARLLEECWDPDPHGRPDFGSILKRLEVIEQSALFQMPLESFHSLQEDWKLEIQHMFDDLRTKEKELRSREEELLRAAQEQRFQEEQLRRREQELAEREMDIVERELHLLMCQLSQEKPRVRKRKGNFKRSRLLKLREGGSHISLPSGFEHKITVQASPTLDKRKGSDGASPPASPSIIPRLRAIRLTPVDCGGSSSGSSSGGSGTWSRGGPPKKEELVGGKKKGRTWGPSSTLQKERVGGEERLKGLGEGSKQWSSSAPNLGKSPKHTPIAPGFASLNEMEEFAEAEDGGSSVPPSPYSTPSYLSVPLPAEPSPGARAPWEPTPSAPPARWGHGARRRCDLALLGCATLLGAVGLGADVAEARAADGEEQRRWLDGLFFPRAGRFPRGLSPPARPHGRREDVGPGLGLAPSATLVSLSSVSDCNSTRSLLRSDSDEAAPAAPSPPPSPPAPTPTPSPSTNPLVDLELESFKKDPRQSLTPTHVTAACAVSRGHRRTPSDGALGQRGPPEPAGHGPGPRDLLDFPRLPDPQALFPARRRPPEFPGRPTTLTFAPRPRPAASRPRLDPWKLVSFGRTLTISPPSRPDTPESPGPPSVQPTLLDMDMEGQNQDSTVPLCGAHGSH
Sequence of Tyrosine-protein kinase receptor UFO (Homo sapiens) (P30530 whole entry): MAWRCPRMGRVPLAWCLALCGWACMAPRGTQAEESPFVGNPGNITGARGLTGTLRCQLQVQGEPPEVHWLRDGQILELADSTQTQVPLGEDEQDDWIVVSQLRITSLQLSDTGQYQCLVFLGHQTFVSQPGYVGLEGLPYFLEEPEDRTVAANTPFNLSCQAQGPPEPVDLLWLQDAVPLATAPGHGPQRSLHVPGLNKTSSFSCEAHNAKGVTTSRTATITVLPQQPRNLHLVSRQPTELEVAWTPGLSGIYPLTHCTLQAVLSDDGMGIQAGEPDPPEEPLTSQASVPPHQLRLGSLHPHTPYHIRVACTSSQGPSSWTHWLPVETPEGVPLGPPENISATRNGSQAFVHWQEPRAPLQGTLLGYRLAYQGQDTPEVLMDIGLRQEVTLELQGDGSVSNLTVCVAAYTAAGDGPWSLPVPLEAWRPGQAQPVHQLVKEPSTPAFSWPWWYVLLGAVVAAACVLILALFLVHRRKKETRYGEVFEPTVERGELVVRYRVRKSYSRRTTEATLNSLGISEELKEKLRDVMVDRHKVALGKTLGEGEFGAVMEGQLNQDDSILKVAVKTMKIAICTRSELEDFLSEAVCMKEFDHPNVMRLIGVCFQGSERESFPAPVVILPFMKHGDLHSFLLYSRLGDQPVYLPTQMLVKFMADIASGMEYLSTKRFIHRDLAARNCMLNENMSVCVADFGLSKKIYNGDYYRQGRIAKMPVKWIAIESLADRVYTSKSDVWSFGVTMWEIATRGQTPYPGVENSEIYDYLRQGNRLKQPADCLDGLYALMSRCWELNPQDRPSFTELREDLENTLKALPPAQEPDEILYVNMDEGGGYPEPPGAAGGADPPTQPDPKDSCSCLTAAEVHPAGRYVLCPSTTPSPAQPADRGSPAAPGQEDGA

CC1=C(C#N)C(c2ccc3[nH]nc(C)c3c2)C(C#N)=C(C)N1 [BAY-474]
inactive: inhibition [1] 3% | inhibition [2] 7% | inhibition [3] 3% | inhibition [4] 16% | inhibition [5] 12% | inhibition [6] -5% | inhibition [7] -8% | inhibition [8] 4% | inhibition [9] -9% | inhibition [10] -1% | inhibition [11] 19% | inhibition [12] 10% | inhibition [13] 13% | inhibition [14] -7%

CC1=C(C#N)[C@@H](c2ccc3[nH]nc(C)c3c2)C(C#N)=C(c2ccc(Cl)cc2)N1 [BAY-827]
inactive: residual activity [15] 100% | residual activity [16] 79% | residual activity [17] 62.4% | residual activity [18] 100% | residual activity [19] 77.1% | residual activity [20] 100% | residual activity [21] 100% | residual activity [22] 100% | residual activity [23] 100% | residual activity [24] 100% | residual activity [25] 100% | residual activity [26] 100% | residual activity [27] 100% | residual activity [28] 78.8% | residual activity [29] 95.1% | residual activity [30] 88.1% | residual activity [31] 100% | residual activity [32] 97.9% | residual activity [33] 100% | residual activity [34] 100% | residual activity [35] 100% | residual activity [36] 100% | residual activity [37] 100%

— ChEMBL document CHEMBL4507263, “Data for DCP probe BAY-474” (2021)
